The results in this text go back to patent US9889120B2, “Combination drug therapies for cancer and methods of making and using them” (Vicus Therapeutics, LLC, priority 2016, dated 2018).

Data set [1] concerns advanced HCC. Nature of the data set: Phase II multi-center, randomized, double-blind, placebo-controlled study of VT-122 or placebo on a background of stable-dose sorafenib (Example 1). In kind it is in vivo, human. The settings on record: advanced HCC patients. The procedure: This was a multi-center, randomized, double-blind, double-dummy, placebo-controlled study.
VT-122 (Vicus Therapeutics, Morristown N.J.): patients entered a three week dose escalation period, with propranolol maximum at 120 mg, and etodolac maximum at 600 mg. VT-122 was administered in split doses in the morning and evening.
After the three week dose escalation period, patients were to continue therapy for four four-week cycles.
Secondary endpoint=lean body mass, overall survival, muscle function, symptom assessment.

For data set [2], the system named is advanced HCC. Description: Randomized investigator initiated trial: sorafenib alone (Group S) vs sorafenib after one week of propranolol and etodolac (Group SPE) (Example 2). In kind it is in vivo, human. The protocol:
Data on the use of the combination in advanced hepatocellular carcinoma patients are lacking.
Patients with advanced HCC were eligible for this randomized investigator initiated trial. Patients received propranolol (P) and etodolac (E) (or “PE”) daily for one week prior to starting sorafenib (S). PE was administered to maximize the therapeutic benefit and minimize side effects. The primary endpoint was survival.
Twenty-four patients were randomized to either sorafenib alone (Group S) or sorafenib after one week of propranolol and etodolac (Group SPE). Population: median age, 54.6 years; 74% male; BMI, 23.0; C-reactive protein (CRP), 69.3; cirrhosis (8.8%), fibrosis (50%), hepatitis B positive (85%). The patient population is summarized:
The study design is schematically illustrated in FIG. 6. Patients received PE daily for one week prior to starting S.
Dosing for PE was as follows: • 8 AM 20 mg propranolol+300 mg etodolac • 3 PM 20 mg propranolol • 8 PM 300 mg etodolac

With `CNC(=O)c1cc(Oc2ccc(NC(=O)Nc3ccc(Cl)c(C(F)(F)F)c3)cc2)ccn1` [Sorafenib, 4-[4-[[4-chloro-3-(trifluoromethyl)phenyl]carbamoylamino]phenoxy]-N-methyl-pyridine-2-carboxamide], in data set [1], the “Kaplan-Meier median survival (95% CI), days” value is listed as 267 (32, NR) days. For the same compound, the “percent of patients with loss in weight” value in data set [2] (FIG. 8) is reported as 50%. Also, in data set [2] (N=12 per group, table), the “12 Month Survival, Percent” value is 25.0%. In addition, in data set [2] (advanced HCC patients), the “Hand foot skin reaction (HFS) grade 2 or 3, percent of patients” value came to 67% and the Median survival is reported as 10 months. Further, the Twelve month survival in data set [2] (advanced HCC patients, 12 per group) is listed as 25.0%. In data set [2] (number of patients alive of N=12), the “12 Month Survival, Alive” value is given as 3.
